In PubChem BioAssay (NCI):
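Test compounds were applied to cells in 96-well plates for 48 hours at 5 doses. GI50: concentration for 50% inhibition of growth. TGI: concentration producing complete growth inhibition.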

Legend:
Test in all cases: inhibition of tumour cell growth, NCI panel, 48 h
[1] = test system: 786-0 renal
[2] = test system: A498 renal
[3] = test system: A549 NSCLC
[4] = test system: ACHN renal
[5] = test system: BT-549 breast
[6] = test system: CAKI-1 renal
[7] = test system: CCRF-CEM leukemia
[8] = test system: COLO 205 colon
[9] = test system: DU-145 prostate
[10] = test system: HCC-2998 colon
[11] = test system: HCT-116 colon
[12] = test system: HCT-15 colon
[13] = test system: HL-60(TB) leukemia
[14] = test system: HOP-62 NSCLC
[15] = test system: HOP-92 NSCLC
[16] = test system: HS 578T breast
[17] = test system: HT29 colon
[18] = test system: IGROV1 ovarian
[19] = test system: K-562 leukemia
[20] = test system: KM12 colon
[21] = test system: LOX IMVI melanoma
[22] = test system: M14 melanoma
[23] = test system: MALME-3M melanoma
[24] = test system: MCF7 breast
[25] = test system: MDA-MB-231 breast
[26] = test system: MDA-MB-435
[27] = test system: MOLT-4 leukemia
[28] = test system: NCI-H226 lung
[29] = test system: NCI-H23 lung
[30] = test system: NCI-H460 lung
[31] = test system: NCI-H522 lung
[32] = test system: NCI/ADR-RES ovarian
[33] = test system: OVCAR-3 ovarian
[34] = test system: OVCAR-4 ovarian
[35] = test system: OVCAR-5 ovarian
[36] = test system: OVCAR-8 ovarian
[37] = test system: PC-3 prostate
[38] = test system: RPMI-8226 leukemia
[39] = test system: RXF 393 renal
[40] = test system: SF-268 CNS
[41] = test system: SF-295 CNS
[42] = test system: SF-539 CNS
[43] = test system: SK-MEL-2 melanoma
[44] = test system: SK-MEL-28 melanoma
[45] = test system: SK-MEL-5 melanoma
[46] = test system: SK-OV-3 ovarian
[47] = test system: SN12C renal
[48] = test system: SNB-19 CNS
[49] = test system: SNB-75 CNS
[50] = test system: SR leukemia
[51] = test system: SW-620 colon
[52] = test system: T-47D breast
[53] = test system: TK-10 renal
[54] = test system: U251 CNS
[55] = test system: UACC-257 melanoma
[56] = test system: UACC-62 melanoma
[57] = test system: UO-31 renal

SMILES: CN(C)CC1CCn2c(c(C3=C(c4cn(C)c5ccccc45)C(=O)NC3=O)c3ccccc32)C1 (centres undefined)
- GI50 [1]: 4.26 µM
- TGI [1]: 8.17 µM
- GI50 [2]: 4.47 µM
- TGI [2]: 9.22 µM
- GI50 [3]: 4.5 µM
- TGI [3]: 9.06 µM
- GI50 [4]: 3.88 µM
- TGI [4]: 7.9 µM
- GI50 [5]: 5.3 µM
- TGI [5]: 12.2 µM
- GI50 [6]: 3.44 µM
- TGI [6]: 7.66 µM
- GI50 [7]: 6.41 µM
- TGI [7]: 24.2 µM
- GI50 [8]: 3.42 µM
- TGI [8]: 7.51 µM
- GI50 [9]: 4.91 µM
- TGI [9]: 10.9 µM
- GI50 [10]: 4.65 µM
- TGI [10]: 8.93 µM
- GI50 [11]: 3.24 µM
- TGI [11]: 6.75 µM
- GI50 [12]: 4.1 µM
- TGI [12]: 10.1 µM
- GI50 [13]: 5.87 µM
- TGI [13]: 11.2 µM
- GI50 [14]: 4.55 µM
- TGI [14]: 8.91 µM
- GI50 [15]: 1780 nM
- TGI [15]: 6.55 µM
- GI50 [16]: 2310 nM
- TGI [16]: 7.36 µM
- GI50 [17]: 3.16 µM
- TGI [17]: 7.83 µM
- GI50 [18]: 5.22 µM
- TGI [18]: 10.1 µM
- GI50 [19]: 4.97 µM
- TGI [19]: 10.5 µM
- GI50 [20]: 4.14 µM
- TGI [20]: 8.26 µM
- GI50 [21]: 3.86 µM
- TGI [21]: 7.83 µM
- GI50 [22]: 4.11 µM
- TGI [22]: 8.04 µM
- GI50 [23]: 3.59 µM
- TGI [23]: 7.31 µM
- GI50 [24]: 4.31 µM
- TGI [24]: 8.03 µM
- GI50 [25]: 3.42 µM
- TGI [25]: 7.56 µM
- GI50 [26]: 3.7 µM
- TGI [26]: 7.49 µM
- GI50 [27]: 4.74 µM
- TGI [27]: 13.9 µM
- GI50 [28]: 4.01 µM
- TGI [28]: 9.38 µM
- GI50 [29]: 4.71 µM
- TGI [29]: 11.3 µM
- GI50 [30]: 4.57 µM
- TGI [30]: 8.68 µM
- GI50 [31]: 4.07 µM
- TGI [31]: 7.95 µM
- GI50 [32]: 5.17 µM
- TGI [32]: 16.6 µM
- GI50 [33]: 3.91 µM
- TGI [33]: 8.15 µM
- GI50 [34]: 4.32 µM
- TGI [34]: 9.3 µM
- GI50 [35]: 4.61 µM
- TGI [35]: 12.8 µM
- GI50 [36]: 4.62 µM
- TGI [36]: 9.87 µM
- GI50 [37]: 3.71 µM
- TGI [37]: 8.03 µM
- GI50 [38]: 4.89 µM
- TGI [38]: 11 µM
- GI50 [39]: 3.3 µM
- TGI [39]: 6.71 µM
- GI50 [40]: 3.84 µM
- TGI [40]: 7.97 µM
- GI50 [41]: 4.46 µM
- TGI [41]: 9.06 µM
- GI50 [42]: 3.87 µM
- TGI [42]: 7.49 µM
- GI50 [43]: 3.96 µM
- TGI [43]: 7.82 µM
- GI50 [44]: 4.59 µM
- TGI [44]: 8.74 µM
- GI50 [45]: 3.9 µM
- TGI [45]: 7.49 µM
- GI50 [46]: 4.62 µM
- TGI [46]: 10.5 µM
- GI50 [47]: 3.89 µM
- TGI [47]: 8.11 µM
- GI50 [48]: 4.84 µM
- TGI [48]: 10.4 µM
- GI50 [49]: 772 nM
- TGI [49]: 5.28 µM
- GI50 [50]: 4.26 µM
- TGI [50]: 12.7 µM
- GI50 [51]: 4.16 µM
- TGI [51]: 8.32 µM
- GI50 [52]: 5.1 µM
- TGI [52]: 10.7 µM
- GI50 [53]: 3.03 µM
- TGI [53]: 7.27 µM
- GI50 [54]: 3.95 µM
- TGI [54]: 7.64 µM
- GI50 [55]: 3.93 µM
- TGI [55]: 7.52 µM
- GI50 [56]: 3.91 µM
- TGI [56]: 7.49 µM
- GI50 [57]: 2690 nM
- TGI [57]: 5.96 µM
